Reference: article PMC13050480, “Preclinical Development of GT-14, a Novel Inhibitor of Gαi2 Protein: Comprehensive Evaluation of Physicochemical, Metabolic Characteristics and Tissue Distribution” (The AAPS journal, 2025)
“Also recorded” adds a separate entry of the source.

What was measured:
[1] = pH-dependent stability in USP buffers; type: physicochemical; details: 25°C
Method: The pH-dependent stability of GT-14 was assessed in aqueous media of pH ranging from 1 to 10 at room temperature. Standard USP buffers ([11]) were prepared and used for this experiment. Details of buffer solutions are provided in Table I. For the pH solubility profile, GT-14 solid was added in excess amounts in various buffer solutions.
To determine the stability of GT-14 in different buffers, GT-14 stock solution (prepared in ACN at a concentration of 75 μg/mL) was added to different buffers to achieve a target concentration of 5 μg/mL. Each buffer solution was prepared in triplicate. All solutions were put on the shaker bath maintained at 25°C. Aliquots were withdrawn at predetermined time points (0, 24, 72, 96, and 120 hrs), centrifuged at 15,000 rpm for 10 min, diluted with Water: ACN (50:50, v/v), and analyzed by the UPLC assay.

[2] = Lipophilicity (logP), octanol-water shake-flask method; type: physicochemical; details: 1-octanol/water, room temperature, triplicate, read-out: experimental logP (octanol-water)
Method: The lipophilicity of GT-14 as indicated by the logP value (octanol–water partition coefficient) was determined by the traditional shake-flask method. Briefly, equal volumes (1 mL) of 1-octanol and water were added to an amber glass bottle and allowed to equilibrate on a shaker for 24 h. Following equilibration, approx. 1 mg of GT-14 (dissolved in Acetonitrile) was added to the two-phase system and allowed to shake continuously at room temperature for 72 h. The two phases were separated using a separating funnel and then centrifuged at 15,000 rpm for 10 min. The concentration of GT-14 in the octanol and water phases was determined by UPLC assay. The experiment was conducted in triplicate.
The logP was calculated by the equation: logP=logOctanolConc./AqueousConc.

LNCaP cells = tested on: LNCaP cells; parameters: method as in PMID 38254786; details: simultaneous treatment; cited from earlier work
PC3 cells = details: cited from earlier work

pH stability (in words) ([1]; acidic to neutral pH 1.2–7.4, 120 hours): relatively stable
pH stability, % remaining ([1]; pH 1.2–7.4, up to 120 hours): > 90% remaining
logP at 72 h [2]: 2.38
SMILES: C/C(=N\c1ccc(O)cc1)c1cc2ccccc2n1C [GT-14, (E)-4-((1-(1-methyl-1H-indol-2-yl)ethylidene)amino)phenol]
pH stability (in words) ([1]; alkaline pH 9–10, 120 hours): significant degradation; also recorded: degrading; also recorded: degradation is significantly pronounced
HDACi and antiandrogen effects on cell migration in LNCaP cells (LNCaP cells): blocked
migratory capability of PC3 cells (PC3 cells): significant reduction
stimulatory effects of docetaxel (cell migration) in PC3 cells (PC3 cells; simultaneous treatment): blocked
